Reference: patent US20250304620A1, “ANTIMICROBIAL PEPTIDE AND APPLICATION THEREOF” (priority 2023, published 2025)
Converted amounts (≈) assume the structure as drawn. Marks after values point to notes of the source that are not given here. Non-standard residues stand in square brackets, D forms with d. Residues, ends and D or L forms follow the SMILES beside them. d2Nal = N[C@H](Cc1ccc2ccccc2c1)C(=O)O; d(hLeu) = CC(C)CC[C@@H](N)C(=O)O

Experiments:
[1] = tested on: Staphylococcus aureus (NRS 384); test: microbe, parasite or virus in culture; format: cell-based; conditions: NRS 384
In short: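 MICs were read against S. aureus strain NRS 384 using twofold serial dilution by CLSI microdilution rules. Levofloxacin and Cbf-K16 were the reference controls, and the test was repeated 5 times in parallel.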

[2] = tested on: Pseudomonas aeruginosa ATCC 27853; test: Injectable formulations on mice infected with peritonitis; format: in vivo, ICR mice; conditions: 1 mg/kg via tail vein, twice a day for 3 days, n = 10; for Average survival times (Days): observed for 14 d
In short: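 Survival readout: deaths and survival time tracked for 14 d. Treatment was tail-vein injection by body weight, twice a day for 3 consecutive days, starting right after intraperitoneal challenge with 0.2 mL of 1×10^9 CFU/mL P. aeruginosa ATCC 27853 in male and female ICR mice.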

[3] = tested on: vancomycin-resistant Enterococcus (VRE); format: cell-based
Description: (§1) According to the Standards of Clinical and Laboratory Standards Institute (CLSI) of the USA for antimicrobial drug susceptibility test operation standards, the micronutrient serial twofold dilution method was used further determine MICs of the antimicrobial peptides LV-1 to LV-30 against 5 clinically common drug-resistant bacterial strains. The experiment was repeated 5 times in parallel. […] The tested drug-resistant strains included Methicillin-resistant Staphylococcus aureus (MRSA), carbapenem-resistant Escherichia coli (CREC), vancomycin-resistant Enterococcus (VRE), carbapenem-resistant Pseudomonas aeruginosa (CRPA), and carbapenem-resistant Klebsiella pneumoniae (CRKP).

[4] = tested on: Methicillin-resistant Staphylococcus aureus (MRSA); format: cell-based; conditions: Methicillin-resistant
Description: as §1

[5] = tested on: carbapenem-resistant Escherichia coli (CREC); format: cell-based; conditions: carbapenem-resistant (CREC)
Description: as §1

[6] = tested on: carbapenem-resistant Pseudomonas aeruginosa (CRPA); format: cell-based; conditions: carbapenem-resistant (CRPA)
Description: as §1

[7] = tested on: carbapenem-resistant Klebsiella pneumoniae (CRKP); format: cell-based; conditions: carbapenem-resistant (CRKP)
Description: as §1

SMILES | MIC against Staphylococcus aureus (NRS 384) [1] | Number of mice that died on each day after infection: day 1 [2] | Number of mice that died on each day after infection: day 2 [2] | Number of mice that died on each day after infection: day 3 [2] | Number of mice that died on each day after infection: day 4 [2] | Number of mice that died on each day after infection: day 5 [2] | Average survival times (Days) [2] | MIC VRE [3] | MIC MRSA [4] | MIC CREC [5] | MIC CRPA [6] | MIC CRKP [7]
CC(=O)N[C@H](CCCNC(=N)N)C(=O)N[C@H](CCCCN)C(=O)N[C@H](CCC(C)C)C(=O)N[C@H](CCC(C)C)C(=O)N[C@H](Cc1ccc2ccccc2c1)C(=O)N[C@H](CCCNC(=N)N)C(=O)N[C@H](CCC(C)C)C(=O)N[C@H](CCCCN)C(=O)N[C@H](Cc1ccc2ccccc2c1)C(=O)N[C@H](CCCNC(=N)N)C(=O)N[C@H](CCCCN)C(N)=O [LV-14] (Ac-[dR][dK][d(hLeu)][d(hLeu)][d2Nal][dR][d(hLeu)][dK][d2Nal][dR][dK]-NH2) | 1 µg/mL (≈ 0.592 µM) | 1 Mouse | 2 Mouse | 0 Mouse | 1 Mouse | 1 Mouse | 8.4** Days | 4 µg/mL (≈ 2.37 µM) | 4 µg/mL (≈ 2.37 µM) | 8 µg/mL (≈ 4.74 µM) | 8 µg/mL (≈ 4.74 µM) | 4 µg/mL (≈ 2.37 µM)
CC(=O)N[C@H](CCCNC(=N)N)C(=O)N[C@H](CCCCN)C(=O)N[C@H](C)C(=O)N[C@H](C)C(=O)N[C@H](Cc1ccc2ccccc2c1)C(=O)N[C@H](CCCNC(=N)N)C(=O)N[C@H](C)C(=O)N[C@H](CCCCN)C(=O)N[C@H](Cc1ccc2ccccc2c1)C(=O)N[C@H](CCCNC(=N)N)C(=O)N[C@H](CCCCN)C(N)=O [LV-15] (Ac-[dR][dK][dA][dA][d2Nal][dR][dA][dK][d2Nal][dR][dK]-NH2) | 1 µg/mL (≈ 0.658 µM) | 1 Mouse | 2 Mouse | 0 Mouse | 2 Mouse | 0 Mouse | 8.3** Days | 8 µg/mL (≈ 5.26 µM) | 4 µg/mL (≈ 2.63 µM) | 4 µg/mL (≈ 2.63 µM) | 8 µg/mL (≈ 5.26 µM) | 8 µg/mL (≈ 5.26 µM)
CC(=O)N[C@H](CCCNC(=N)N)C(=O)N[C@H](CCCCN)C(=O)N[C@@H](C(=O)N[C@@H](C(=O)N[C@H](Cc1ccc2ccccc2c1)C(=O)N[C@H](CCCNC(=N)N)C(=O)N[C@@H](C(=O)N[C@H](CCCCN)C(=O)N[C@H](Cc1ccc2ccccc2c1)C(=O)N[C@H](CCCNC(=N)N)C(=O)N[C@H](CCCCN)C(N)=O)C(C)C)C(C)C)C(C)C [LV-16] (Ac-[dR][dK][dV][dV][d2Nal][dR][dV][dK][d2Nal][dR][dK]-NH2) | 1 µg/mL (≈ 0.623 µM) | 2 Mouse | 1 Mouse | 1 Mouse | 1 Mouse | 0 Mouse | 8.1** Days | 2 µg/mL (≈ 1.25 µM) | 4 µg/mL (≈ 2.49 µM) | 8 µg/mL (≈ 4.99 µM) | 8 µg/mL (≈ 4.99 µM) | 2 µg/mL (≈ 1.25 µM)
